Data set [1] has as its system SARS-CoV-2. Briefly: Anti-viral potency in VERO E6 cells (cytopathic viral activity, crystal violet). Format: cell-based. The note with it: Severe acute respiratory syndrome coronavirus 2, Vero C1008, 48 h, read-out: SARS-COV-2 EC50 (μM). Background: Protection from cytopathic effect is a common read-out in antiviral testing.
The test system of data set [2] is human Hep G2 cells (ATCC HB-8065). Briefly: Cytotoxicity in Hep G2 cells (CellTiter-Glo). Format: cell-based.
Data set [3] has as its target T1, SARS-CoV-2 PLpro (Severe acute respiratory syndrome coronavirus 2, UniProt P0DTD1).
T1 construct: containing 60 nM papain-like protease
Briefly: biochemical.

The mark [4] stands for this setting: Hep G2 cells, 100 μM test article, 24-hour exposure.
Where [5] appears, read: 60 nM papain-like protease, 50 μM Z-RLRGG-AMC, pH 7.5, 37° C., read-out: SARS-CoV-2 PLpro IC50.

As usually defined, the EC50 is the concentration needed to bring the measured effect to its halfway point. What is called IC50 is the concentration at which inhibition is half-maximal.

Structures can show the parent of a compound that is named as a salt. Where two headings read alike, the source gives them in different places.

For `Cc1ccc(N2CCN(C)CC2)cc1C(=O)N[C@H](C)c1cccc(-c2cn(C)nc2C)c1` [Example 61, N-[(1R)-1-[3-(1,3-Dimethylpyrazol-4-yl)phenyl]ethyl]-2-methyl-5-(4-methylpiperazin-1-yl)benzamide], the EC50 in data set [1] is less than 5 µM. In data set [2] (setting [4]), the “% Cell Viability” value was found to be 69.2%. Moreover, the IC50 in data set [3] (setting [5]) was less than 2 µM.

In the case of `CCn1cc(-c2cccc([C@@H](C)NC(=O)c3cc(N4CCN(C)CC4)ccc3C)c2)cn1` [Example 64, N-[(1R)-1-[3-(1-Ethylpyrazol-4-yl)phenyl]ethyl]-2-methyl-5-(4-methylpiperazin-1-yl)benzamide], the 50% effective concentration (EC50) in data set [1] is less than 5 µM. In addition, the “% Cell Viability” value in data set [2] (setting [4]) is recorded as 78.6%. In data set [3] (setting [5]), the IC50 is less than 2 µM.

Take `COc1cc(OC)c([C@@H](C)NC(=O)c2cc(N3CCN(C)CC3)ccc2C)cc1-c1cnn(C)c1` [Example 215, N-[(1R)-1-[2,4-Dimethoxy-5-(1-methylpyrazol-4-yl)phenyl]ethyl]-2-methyl-5-(4-methylpiperazin-1-yl)benzamide]: in data set [1], the EC50 is less than 5 µM. Moreover, in data set [2] (setting [4]), the “% Cell Viability” value was found to be 80.1%. Besides, the IC50 in data set [3] (setting [5]) was less than 2 µM.

Consider `COc1cc(-c2cnn(C)c2)cc([C@@H](C)NC(=O)c2cc(N3CCN(CC4CC4)CC3)ccc2C)c1` [Example 245, 5-[4-(Cyclopropylmethyl)piperazin-1-yl]-N-[(1R)-1-[3-methoxy-5-(1-methylpyrazol-4-yl)phenyl]ethyl]-2-methyl-benzamide], for which the EC50 in data set [1] was less than 5 µM. In addition, the “% Cell Viability” value in data set [2] (setting [4]) amounted to 58.4%. The IC50 in data set [3] (setting [5]) is less than 2 µM.

For the compound `Cc1ccc(N2CCN(C)CC2)cc1C(=O)N[C@H](C)c1ccc(F)c(-c2cnn(C)c2)c1` [Example 217, N-[(1R)-1-[4-Fluoro-3-(1-methylpyrazol-4-yl)phenyl]ethyl]-2-methyl-5-(4-methylpiperazin-1-yl)benzamide], in data set [1], the EC50 was less than 5 µM. Further, in data set [2] (setting [4]), the “% Cell Viability” value stood at 61.7%. Further, the 50% inhibitory concentration (IC50) in data set [3] (setting [5]) is less than 2 µM.

`COc1ccc([C@@H](C)NC(=O)c2cc(N3C[C@H]4CC[C@@H](C3)N4)ccc2C)cc1-c1cnn(C)c1` [Example 266, 5-[(1S,5R)-3,8-Diazabicyclo[3.2.1]octan-3-yl]-N-[(1R)-1-[4-methoxy-3-(1-methylpyrazol-4-yl)phenyl]ethyl]-2-methyl-benzamide hydrochloride salt]: the EC50 in data set [1] was less than 5 µM. Besides, the “% Cell Viability” value in data set [2] (human, 24 h, 100 μM) turned out to be 61.1%. The IC50 in data set [3] was less than 2 µM.

As to `COc1ccc([C@@H](C)NC(=O)c2cc(N3CCN(C)CC3)ccc2C)cc1-c1cn(C)nc1C` [Example 212, N-[(1R)-1-[3-(1,3-Dimethylpyrazol-4-yl)-4-methoxy-phenyl]ethyl]-2-methyl-5-(4-methylpiperazin-1-yl)benzamide], the EC50 in data set [1] is less than 5 µM. The “% Cell Viability” value in data set [2] (setting [4]) came out at 96.8%. The IC50 in data set [3] (setting [5]) is less than 2 µM.

In the case of `COc1ccc([C@@H](C)NC(=O)c2cc(N3CCN(C)CC3)ccc2C)cc1OCC1CC1` [Example 296, N-[(1R)-1-[3-(Cyclopropylmethoxy)-4-methoxy-phenyl]ethyl]-2-methyl-5-(4-methylpiperazin-1-yl)benzamide], in data set [1], the EC50 is less than 15 µM. The “% Cell Viability” value in data set [2] (setting [4]) was found to be 76.1%. The IC50 in data set [3] (setting [5]) was less than 2 µM.

As for `COc1cc(-c2cn(C)nc2C)cc([C@@H](C)NC(=O)c2cc(N3CCN(C)CC3)ccc2C)c1` [Example 233, N-[(1R)-1-[3-(1,3-Dimethylpyrazol-4-yl)-5-methoxy-phenyl]ethyl]-2-methyl-5-(4-methylpiperazin-1-yl)benzamide], the EC50 in data set [1] was less than 5 µM. Moreover, the “% Cell Viability” value in data set [2] (setting [4]) stood at 88.9%. Also, the IC50 in data set [3] (setting [5]) was less than 2 µM.

Take `COc1ccc([C@@H](C)NC(=O)c2cc(N3C[C@H]4C[C@@H]3CN4C)ccc2C)cc1-c1cnn(C)c1` [Example 227, N-[(1R)-1-[4-Methoxy-3-(1-methylpyrazol-4-yl)phenyl]ethyl]-2-methyl-5-[(1R,4R)-5-methyl-2,5-diazabicyclo[2.2.1]heptan-2-yl]benzamide]: the concentration giving a half-maximal response (EC50) in data set [1] was less than 5 µM. In addition, the “% Cell Viability” value in data set [2] (setting [4]) was 89.9%. Moreover, in data set [3] (setting [5]), the IC50 was less than 2 µM.

For `COc1ccc([C@@H](C)NC(=O)c2cc(N3CCN(C)CC3)ccc2C)cc1-c1cnn(C)c1` [Example 205, N-[(1R)-1-[4-Methoxy-3-(1-methylpyrazol-4-yl)phenyl]ethyl]-2-methyl-5-(4-methylpiperazin-1-yl)benzamide], in data set [1], the EC50 is less than 5 µM. The “% Cell Viability” value in data set [2] (setting [4]) amounted to 105.8%. The IC50 in data set [3] (setting [5]) was less than 2 µM.

Take `COc1ccc([C@@H](C)NC(=O)c2cc(N3CC4CNCC4C3)ccc2C)cc1-c1cnn(C)c1` (stereo partly drawn) [Example 261, 5-(2,3,3a,4,6,6a-Hexahydro-1H-pyrrolo[3,4-c]pyrrol-5-yl)-N-[(1R)-1-[4-methoxy-3-(1-methylpyrazol-4-yl)phenyl]ethyl]-2-methyl-benzamide]: in data set [1], the EC50 is less than 15 µM. The “% Cell Viability” value in data set [2] (setting [4]) stood at 49.2%. Moreover, the IC50 in data set [3] (setting [5]) is less than 2 µM.

In the case of `COc1cc(-c2cnn(C)c2)cc([C@@H](C)NC(=O)c2cc(N3C[C@H]4C[C@@H]3CN4C)ccc2C)c1` [Example 244, N-[(1R)-1-[3-Methoxy-5-(1-methylpyrazol-4-yl)phenyl]ethyl]-2-methyl-5-[(1R,4R)-5-methyl-2,5-diazabicyclo[2.2.1]heptan-2-yl]benzamide], the EC50 in data set [1] was less than 5 µM. In addition, the “% Cell Viability” value in data set [2] (setting [4]) is on record as 67.1%. Besides, in data set [3] (setting [5]), the IC50 is less than 2 µM.

Turning to `COc1cc(-c2cnn(C)c2)cc([C@@H](C)NC(=O)c2cc(N3C[C@H]4CC[C@@H](C3)N4)ccc2C)c1` [Example 272, 5-[(1R,5S)-3,8-diazabicyclo[3.2.1]octan-3-yl]-N-[(1R)-1-[3-methoxy-5-(1-methyl-1H-pyrazol-4-yl)phenyl]ethyl]-2-methylbenzamide], the EC50 in data set [1] is less than 5 µM. The “% Cell Viability” value in data set [2] (human, 24 h, 100 μM) was determined as 74.3%. The 50% inhibitory concentration (IC50) in data set [3] was less than 2 µM.

As for `COc1cc([C@@H](C)NC(=O)c2cc(N3CCN(C)CC3)ccc2C)ccc1-c1cnn(C)c1` [Example 306, N-[(1R)-1-[3-Methoxy-4-(1-methylpyrazol-4-yl)phenyl]ethyl]-2-methyl-5-(4-methylpiperazin-1-yl)benzamide], in data set [1], the EC50 is less than 5 µM. Moreover, the “% Cell Viability” value in data set [2] (setting [4]) came out at 88.4%. Also, the IC50 in data set [3] (setting [5]) was less than 2 µM.

Regarding `COc1ccc(-c2cnn(C)c2)cc1[C@@H](C)NC(=O)c1cc(N2CCN(C)CC2)ccc1C` [Example 239, N-[(1R)-1-[2-Methoxy-5-(1-methylpyrazol-4-yl)phenyl]ethyl]-2-methyl-5-(4-methylpiperazin-1-yl)benzamide], in data set [1], the EC50 was less than 5 µM. The “% Cell Viability” value in data set [2] (setting [4]) was determined as 101.6%. In addition, the IC50 in data set [3] (setting [5]) is less than 2 µM.

Regarding `COc1ccc([C@@H](C)NC(=O)c2cc(N3CC4CN(C)CC4C3)ccc2C)cc1OC` (stereo partly drawn) [Example 9, N-[(1R)-1-(3,4-Dimethoxyphenyl)ethyl]-2-methyl-5-(2-methyl-1,3,3a,4,6,6a-hexahydropyrrolo[3,4-c]pyrrol-5-yl)benzamide], in data set [1], the EC50 is less than 15 µM. Also, in data set [2] (setting [4]), the “% Cell Viability” value was found to be 96.5%. Also, the IC50 in data set [3] (setting [5]) was less than 5 µM.

As for `COc1cc(-c2cnn(C)c2C)cc([C@@H](C)NC(=O)c2cc(N3CCN(C)CC3)ccc2C)c1` [Example 253, N-[(1R)-1-[3-(1,5-Dimethylpyrazol-4-yl)-5-methoxy-phenyl]ethyl]-2-methyl-5-(4-methylpiperazin-1-yl)benzamide hydrochloride salt], the EC50 in data set [1] was less than 5 µM. In addition, the “% Cell Viability” value in data set [2] (setting [4]) was determined as 89.3%. Moreover, the IC50 in data set [3] (setting [5]) was less than 2 µM.

Take `COc1cc(-c2cnn(C3CC3)c2)cc([C@@H](C)NC(=O)c2cc(N3CCN(C)CC3)ccc2C)c1` [Example 221, N-[(1R)-1-[3-(1-Cyclopropylpyrazol-4-yl)-5-methoxy-phenyl]ethyl]-2-methyl-5-(4-methylpiperazin-1-yl)benzamide]: the EC50 in data set [1] was less than 5 µM. Moreover, the “% Cell Viability” value in data set [2] (setting [4]) is reported as 74.9%. The IC50 in data set [3] (setting [5]) was less than 2 µM.

`CCn1cc(-c2cc(OC)cc([C@@H](C)NC(=O)c3cc(N4CCN(C)CC4)ccc3C)c2)cn1` [Example 220, N-[(1R)-1-[3-(1-Ethylpyrazol-4-yl)-5-methoxy-phenyl]ethyl]-2-methyl-5-(4-methylpiperazin-1-yl)benzamide]: in data set [1], the 50% effective concentration (EC50) was less than 15 µM. The “% Cell Viability” value in data set [2] (setting [4]) is on record as 80.7%. Besides, the IC50 in data set [3] (setting [5]) is less than 2 µM.

In the case of `Cc1ccc(N2CCNCC2)cc1C(=O)N[C@H](C)c1cccc(-c2cnn(C)c2)c1` [Example 72, 2-Methyl-N-[(1R)-1-[3-(1-methylpyrazol-4-yl)phenyl]ethyl]-5-piperazin-1-yl-benzamide], the EC50 in data set [1] was less than 5 µM. Further, in data set [2] (setting [4]), the “% Cell Viability” value is given as 79.0%. In addition, the IC50 in data set [3] (setting [5]) is less than 2 µM.

Consider `COc1ccc([C@@H](C)NC(=O)c2cc(N3C[C@H]4CC[C@@H](C3)N4C)ccc2C)cc1OC` [Example 11, N-[(1R)-1-(3,4-Dimethoxyphenyl)ethyl]-2-methyl-5-[(1R,5S)-8-methyl-3,8-diazabicyclo[3.2.1]octan-3-yl]benzamide], for which the EC50 in data set [1] was less than 5 µM. Moreover, the “% Cell Viability” value in data set [2] (human, 24 h, 100 μM) worked out at 95.6%. Further, the IC50 in data set [3] is less than 2 µM.

Regarding `COc1cc([C@@H](C)NC(=O)c2cc(N3CCN(C)CC3)ccc2C)ccc1OCCN1CCOCC1` [Example 293, N-[(1R)-1-[3-Methoxy-4-(2-morpholinoethoxy)phenyl]ethyl]-2-methyl-5-(4-methylpiperazin-1-yl)benzamide], the EC50 in data set [1] was less than 5 µM. Also, the “% Cell Viability” value in data set [2] (setting [4]) is listed as 102.3%. Besides, the concentration for half-maximal inhibition (IC50) in data set [3] (setting [5]) was less than 2 µM.

Values taken from patent US20240383852A1, “ANTI-VIRAL COMPOUNDS” (INFEX Therapeutics Limited, priority 2021, published 2024).
